{"source": "patent US20220401390A1", "about": "“TREATMENTS OF DIABETIC MACULAR EDEMA AND IMPAIRED VISUAL ACUITY” (KALVISTA PHARMACEUTICALS LIMITED, priority 2019, published 2022)", "system": "subjects with ciDME who have had prior anti-VEGF treatment", "test": "Study 2: sham-controlled monthly intravitreal injections, BCVA (ETDRS) efficacy", "format": "in vivo, human", "design": "BCVA (letters): any loss from baseline, Diff. v. sham / BCVA: ≥5 letter loss from baseline, Diff. v. sham / BCVA: ≥10 letter loss from baseline, Diff. v. sham / BCVA: ≥15 letter loss from baseline, Diff. v. sham: unit not given here", "details": "for BCVA: ≥10 letter loss from baseline, Diff. v. sham / BCVA: ≥15 letter loss from baseline, Diff. v. sham / BCVA (letters): any loss from baseline, Diff. v. sham / BCVA: ≥5 letter loss from baseline, Diff. v. sham: week 16", "from_the_text": "To investigate monthly dosing of intravitreal (IVT) injection of the compound of Formula A in subjects with ciDME who have had prior anti-VEGF treatment. In particular, to evaluate any effect on the efficacy in the treatment, prevention, or prevention of worsening of ciDME in subjects who have had prior anti-VEGF treatment.\nThis study was a randomized, sham-controlled, double-masked, 3-arm study into efficacy, safety and tolerability of monthly intravitreal injections of the compound of Formula A as a monotherapy in adult subjects with ciDME. The subjects had all had prior anti-VEGF treatment.\n129 adult subjects were chosen using the following inclusion criteria: • 1. Male or female adult subjects 18 years of age and older. • 2. Confirmed diagnosis of Type I or Type II diabetes mellitus (DM). Any of the following were sufficient: • a. Current regular use of insulin for the treatment of diabetes • b. Current regular use of oral anti-hyperglycemia agents for the treatment of diabetes • c. Documented diabetes by American Diabetes Association and/or World Health Organization (VVHO) criteria. • 3. Best Corrected Visual Acuity (BCVA), using Standard Early Treatment Diabetic Retinopathy Study (ETDRS) chart, of ≥19 letters (˜20/400) and ≤73 letters (˜20/40) in the study eye and ≥34 letters (˜20/200 or better) in the fellow eye at Screening and Day 1. • 4. Presence of ciDME in the study eye defined as Heidelberg Spectralis Optical Coherence Tomography (SD-OCT) CST ≥305 μm in women and ≥320 μm in men in the study eye (as assessed at Screening by the Investigator and Central Image Reading Center (CIRC) and on Day 1 by the Investigator). • 5. Subjects' first anti-VEGF injection in the study eye occurred 36 months prior to Day 1. • 6. Subjects received at least 3 anti-VEGF injections in the study eye within a 6-month period within the 36 months prior to Day 1. • 7. Subject's' last anti-VEGF injection in the study eye was 8 weeks prior to Day 1. • 8. Subjects, who in the view of the Investigator, were able to defer treatment in the study eye for at least 6 months following Day 1. • 9. […] Provide signed informed consent and were willing and capable of complying with clinic visits and study procedures.\nThe 129 eligible subjects were randomized approximately 1:1:1 into three arms: • 1. Arm 1, N=44: • Received injections of 3 μg/eye (100 μL injection volume at a concentration of 30 μg/mL) of the compound of formula A; • 2. Arm 2, N=41: • Received injections of 6 μg/eye (100 μL injection volume at a concentration of 60 μg/mL) of the compound of formula A; and • 3. Arm 3, N=44: • Received a sham procedure; during a 12-week, double-masked treatment period (a total of 4 doses given at approximately monthly intervals).\nSubjects visited the study clinic on Day 1 and Weeks 4, 8, and 12 during the Treatment Phase for study drug administration or sham procedure, safety, and ophthalmic assessments.\nThe ophthalmic assessments were carried out in approximately the following order at the subjects' visits to the study clinic on Day 1, and Weeks 4, 8 and 12: • BCVA (must be performed prior to all other ophthalmic procedures) • Slit lamp biomicroscopy • Pre-Injection IOP/IOP at visits with no study drug administration (must be done prior to dilation) • Dilated indirect ophthalmoscopy • Fundus photography • SD-OCT • Intravitreal injection • Post-Injection IOP\nAll subjects visited the clinic at Weeks 16, 20, and 24 after the last study drug administration or sham procedure for safety and ophthalmic assessments. The visit window for Weeks 16, 20, and 24 is ±7 days.\nThe assessment measured change from baseline in BCVA letter count in the study eye at Week 16. Change from baseline in BCVA letter count is calculated as Week 16 BCVA letter count minus Day 1 BCVA letter count such that a negative difference indicates a worsening in vision. […]"}
{"smiles": "CCOc1ccc(C[C@@H](NC(=O)c2ccccc2)C(=O)N[C@@H](Cc2ccccc2)C(=O)NCc2ccc(CN)cc2)cc1", "note": "[compound of Formula A, N—[(R)-1-[(S)-1-(4-Aminomethyl-benzylcarbamoyl)-2-phenyl-ethylcarbamoyl]-2-(4-ethoxy-phenyl)-ethyl]-benzamide]", "values": [{"measurement": "BCVA improvement (letters), change versus sham, mean", "setting": "3 μg, 4 weeks, positive value is improvement", "result": 0.6, "unit": "letters"}, {"measurement": "BCVA improvement (letters), change versus sham, mean", "setting": "3 μg, 8 weeks, positive value is improvement", "result": 1.2, "unit": "letters"}, {"measurement": "BCVA improvement (letters), change versus sham, mean", "setting": "3 μg, 12 weeks, positive value is improvement", "result": 3.8, "unit": "letters"}, {"measurement": "BCVA improvement (letters), change versus sham, mean", "setting": "3 μg, 16 weeks, positive value is improvement", "result": 1.5, "unit": "letters"}, {"measurement": "BCVA improvement (letters), change versus sham, mean", "setting": "3 μg, 20 weeks, positive value is improvement", "result": "−1.2", "unit": "letters"}, {"measurement": "BCVA improvement (letters), change versus sham, mean", "setting": "3 μg, 24 weeks, positive value is improvement", "result": "−0.7", "unit": "letters"}, {"measurement": "BCVA (letters): any loss from baseline, (%)", "setting": "3 μg, week 16, n = 44", "result": "(50.0) %"}, {"measurement": "BCVA: ≥5 letter loss from baseline, (%)", "setting": "3 μg, week 16, n = 44", "result": "(25.0) %"}, {"measurement": "BCVA: ≥10 letter loss from baseline, (%)", "setting": "3 μg, week 16, n = 44", "result": "(9.1) %"}, {"measurement": "BCVA: ≥15 letter loss from baseline, (%)", "setting": "3 μg, week 16, n = 44", "result": "(4.5) %"}, {"measurement": "BCVA: ≥10 letter loss from baseline, Diff. v. sham", "setting": "3 μg, p-value 0.228", "result": "−11.4"}, {"measurement": "BCVA: ≥15 letter loss from baseline, Diff. v. sham", "setting": "3 μg, p-value 0.4336", "result": "−6.8"}, {"measurement": "BCVA (letters): any loss from baseline, Diff. v. sham", "setting": "3 μg, p-value 0.6695", "result": "−4.5"}, {"measurement": "BCVA: ≥5 letter loss from baseline, Diff. v. sham", "setting": "3 μg, p-value 0.8083", "result": "−2.3"}, {"measurement": "Improvement in BCVA (letters) score compared to sham after the treatment period (in words)", "setting": "6 μg doses, through to the 24 week time period", "result": "maintained"}, {"measurement": "BCVA improvement (letters), change versus sham, mean", "setting": "6 μg, all subjects, 4 weeks, positive value is improvement", "result": 0.9, "unit": "letters"}, {"measurement": "BCVA improvement (letters), change versus sham, mean", "setting": "6 μg, all subjects, 8 weeks, positive value is improvement", "result": 1.1, "unit": "letters"}, {"measurement": "BCVA improvement (letters), change versus sham, mean", "setting": "6 μg, all subjects, 12 weeks, positive value is improvement", "result": 2.9, "unit": "letters"}, {"measurement": "BCVA improvement (letters), change versus sham, mean", "setting": "6 μg, all subjects, 16 weeks, positive value is improvement", "result": 2.6, "unit": "letters"}, {"measurement": "BCVA improvement (letters), change versus sham, mean", "setting": "6 μg, all subjects, 20 weeks, positive value is improvement", "result": 2.0, "unit": "letters"}, {"measurement": "BCVA improvement (letters), change versus sham, mean", "setting": "6 μg, all subjects, 24 weeks, positive value is improvement", "result": 2.1, "unit": "letters"}, {"measurement": "BCVA improvement (letters), change versus sham, mean", "setting": "6 μg, early stage subjects (baseline BCVA >55 letters), 4 weeks", "result": 2.3, "unit": "letters"}, {"measurement": "BCVA improvement (letters), change versus sham, mean", "setting": "6 μg, early stage subjects (baseline BCVA >55 letters), 8 weeks", "result": 1.8, "unit": "letters"}, {"measurement": "BCVA improvement (letters), change versus sham, mean", "setting": "6 μg, early stage subjects (baseline BCVA >55 letters), 12 weeks", "result": 4.7, "unit": "letters"}, {"measurement": "BCVA improvement (letters), change versus sham, mean", "setting": "6 μg, early stage subjects (baseline BCVA >55 letters), 16 weeks", "result": 4.9, "unit": "letters"}, {"measurement": "BCVA improvement (letters), change versus sham, mean", "setting": "6 μg, early stage subjects (baseline BCVA >55 letters), 20 weeks", "result": 3.5, "unit": "letters"}, {"measurement": "BCVA improvement (letters), change versus sham, mean", "setting": "6 μg, early stage subjects (baseline BCVA >55 letters), 24 weeks", "result": 2.9, "unit": "letters"}, {"measurement": "BCVA (letters): any loss from baseline, (%)", "setting": "6 μg, week 16, n = 41", "result": "(32.5) %"}, {"measurement": "BCVA: ≥5 letter loss from baseline, (%)", "setting": "6 μg, week 16, n = 41", "result": "(20.0) %"}, {"measurement": "BCVA: ≥10 letter loss from baseline, (%)", "setting": "6 μg, week 16, n = 41", "result": "(5.0) %"}, {"measurement": "BCVA: ≥15 letter loss from baseline, (%)", "setting": "6 μg, week 16, n = 41", "result": "(0) %"}, {"measurement": "BCVA (letters): any loss from baseline, Diff. v. sham", "setting": "6 μg, p-value 0.0421", "result": "−22.0"}, {"measurement": "BCVA: ≥10 letter loss from baseline, Diff. v. sham", "setting": "6 μg, p-value 0.0516", "result": "−15.5"}, {"measurement": "BCVA: ≥15 letter loss from baseline, Diff. v. sham", "setting": "6 μg, p-value 0.0565", "result": "−11.4"}, {"measurement": "BCVA: ≥5 letter loss from baseline, Diff. v. sham", "setting": "6 μg, p-value 0.4344", "result": "−7.3"}, {"measurement": "Average improvement in BCVA score of early stage patients versus overall population (in words)", "setting": "baseline BCVA greater than 55 letters, every measurement taken", "result": "consistently better average improvement in BCVA score than the overall average population score"}, {"measurement": "Progression of DME or impaired visual acuity (in words)", "setting": "subjects that had previously had anti-VEGF treatment", "result": "slowing of the progression"}]}
